# Measured values taken from US6681132B1, “Sodium magnetic reasonance imaging used in diagnosing tumors and assessing response to treatment” (The Trustees of Columbia University in the City of New York, priority 1999, dated 2004).
# Tests used:
# [1] = system: DU145 cells; experiment: APO-BRDU endlabelling of DNA fragmentation, flow cytometry, DU145; assay type: cell-based, human; details: for time course of DNA fragmentation: DU 145, 24-hr sample point
# Experimental: Chemotherapy, cellular apoptosis, ion activity Cells were cultured and drugs added to media for various times. Fluorescent endlabelling techniques for flow cytometry have been described in detail (23, 97). […] TdT attaches BrdU to DNA ends, following which fluorescent antibodies for BrdU tagged the DNA fragments. Propidium iodide (PI) gives cell cycle position.
# At the end of the treatment period, cells are trypsinized, resuspended in media, resuspended in PBS, resuspended in iced cold methanol free formaldehyde (1% in PBS) for 15 min, resuspended in 70% ethanol and stored at −20° C. until all samples from a given experiment are ready to run (19, 23).
# Fixed cells are labeled following kit instructions (two washes with kit buffer, overnight endlabelling, two resuspensions in a rinse buffer, exposure to fluorescent antibody and treatment with propidium iodide and RNAase. Flow cytometry is performed on a Becton/Dickenson FACStar II. Individual fluorescence intensity values for 10,000 cells are obtained for each sample.
# To specifically assay DNA fragmentation, a downstream response to apoptosis, uses of a terminal deoxynucleotidyl transferase labeling approach whereby fluorescent moieties are enzymatically attached to all DNA fragment ends.
# [2] = system: PC3 cells; experiment: Free [Nai] with SBFI/AM in 96 well plates, fluorescent plate reader; assay type: cell-based, human; details: for earliest time of increase of mean SBFI ratio ([Nai]): 10 nM taxotere or 10 μg/ml VP-16 etoposide
# Source text: For ion measurements (panels C & D), plates were run on a Fluoroskan II fluorescent plate reader (Titertek) using Titertek's computer Interface. Fura II loaded wells (panel D) had measured fluorescence intensities between 15,000 and 25,000 units whereby dye free wells had values ˜100 and 500. The wells with SBFI/AM loaded cells (panel C) had intensities between 4,000 and 9,000 units. Two excitation values were used for each well measurement. Ratios were derived by dividing fluorescent intensity at 345 nm excitation by that at 390 nm, both with a 508 nm mission filter. For all plates, dye free wells were examined for both control and drug treated cells, and served as background values for each wavelength. For [Cai] experiments a second means of determining background fluorescence, which gave statistically similar results, was exposure to 6 mM MnCl2 following the initial measurement. […] Backgrounds were subtracted from each cell in the protocol grouping prior to the ratio being derived. These individual well to well ratios for each protocol grouping were averaqed and used in the statistical tests which determined whether the changes in [Nai] and [Cai] following drug application were significant. Each value plotted below consisted of at least n=5 well ratios. As an additional control, we induced an acute [Cai] response in some control wells for each plate by adding thapsigargin after the initial measurement. Rapid and large [Cai] changes were detected in each case. To derive concentration values from the fluorescence readings, different, but standard approaches (26, 73), were taken with each dye. Both panels C and D show elevation of ion activity developing within 2-6 hours, and in the most part continuing for 18-24 hours.
# b. SBFI/AM—This dual excitation wavelength dye is used in a fluorescent plate scanner. With SBFI/AM, we can treat cells cultured in black (non fluorescent) 96 well plates and measure average [Nai] of the cells in each well. [Nai] is calculated using ratio method and in situ calibration—thus ionophores (monensin and gramidicidin) eliminate the transmembrane gradient so that [Nai] can be altered by changing [Nao].
# Comparison of the latency of these apoptotic markers with the ionic responses induced by taxotere and VP-16 at the same doses (10 nM and 10 ug/ml, respectively). […] Since its dual wavelength ultraviolet excitation requirement is impractical for flow cytometry, adherent cells were examined in 96 well culture plates using a fluorescent plate reader (Titertek, Fluoroskan II). […] The ratios of emission intensity at the two excitation wavelengths were calculated for each well, and the average ratio plotted for each time point (FIG. 3.C.; left vertical axis). […]
SMILES,time course of DNA fragmentation [1],"endlabelling response ([1]; Du145, 8 hrs)","increase of endlabelling intensity (DNA fragmentation) ([1]; Du145, 24 hrs exposure) [fold]",earliest time of increase of mean SBFI ratio ([Nai]) [2] [h],"persistence of ionic elevations ([Nai], [Cai]) ([2]; 10 nMol/L in tissue culture)","time by which ionic elevations ([Nai], [Cai]) were significant ([2]; 10 nMol/L in tissue culture) [h]"
"COc1cc([C@@H]2c3cc4c(cc3[C@@H](O[C@@H]3O[C@@H]5CO[C@@H](C)O[C@H]5[C@H](O)[C@H]3O)[C@H]3COC(=O)[C@H]23)OCO4)cc(OC)c1O [VP-16, etoposide]",response peaks and subsides,No response,100,2,–,–
CC(=O)O[C@@]12CO[C@@H]1C[C@H](O)[C@@]1(C)C(=O)[C@H](O)C3=C(C)[C@@H](OC(=O)[C@H](O)[C@@H](NC(=O)OC(C)(C)C)c4ccccc4)C[C@@](O)([C@@H](OC(=O)c4ccccc4)[C@H]21)C3(C)C [taxotere],response peaks and subsides,–,–,2,at least 24 hrs,≤ 6
